≈ marks a conversion by molar mass, not a printed value.
Key:
Format in all cases: functional
Pseudomonas aeruginosa = test: Antimicrobial activity against Pseudomonas aeruginosa ATCC 27853 after 24 hrs by broth microdilution method; details: ATCC 27853, 24 h
Enterococcus faecalis [1] = test: Antimicrobial activity against Enterococcus faecalis ATCC 29212 after 24 hrs by broth microdilution method; details: ATCC 29212, 24 h
Staphylococcus aureus = test: Antimicrobial activity against Staphylococcus aureus ATCC 25923 after 24 hrs by broth microdilution method; details: ATCC 25923, 24 h
Pichia kudriavzevii = test: Antimicrobial activity against Candida krusei ATCC 6258 after 24 hrs by broth microdilution method; details: ATCC 6258, 24 h
Listeria monocytogenes = test: Antimicrobial activity against Listeria monocytogenes ATCC 19115 after 24 hrs by broth microdilution method; details: ATCC 19115, 24 h
Nakaseomyces glabratus = test: Antimicrobial activity against Candida glabrata ATCC 90030 after 24 hrs by broth microdilution method; details: ATCC 90030, 24 h
Candida albicans = test: Antimicrobial activity against Candida albicans ATCC 90028 after 24 hrs by broth microdilution method; details: ATCC 90028, 24 h
Escherichia coli [2] = test: Antimicrobial activity against Escherichia coli ATCC 25922 after 24 hrs by broth microdilution method; details: ATCC 25922, 24 h
Enterococcus faecalis [3] = test: Antimicrobial activity against Enterococcus faecalis ATCC 51299 after 24 hrs by broth microdilution method; details: ATCC 51299, 24 h
Klebsiella pneumoniae = test: Antimicrobial activity against Klebsiella pneumoniae ATCC 13883 after 24 hrs by broth microdilution method; details: ATCC 13883, 24 h
Escherichia coli [4] = test: Antimicrobial activity against Escherichia coli ATCC 35218 after 24 hrs by broth microdilution method; details: ATCC 35218, 24 h

SMILES	MIC (Pseudomonas aeruginosa)	MIC (Enterococcus faecalis [1])	MIC (Staphylococcus aureus)	MIC (Pichia kudriavzevii)	MIC (Listeria monocytogenes)	MIC (Nakaseomyces glabratus)	MIC (Candida albicans)	MIC (Escherichia coli [2])	MIC (Enterococcus faecalis [3])	MIC (Klebsiella pneumoniae)	MIC (Escherichia coli [4])
Cc1nc(SCC(=O)c2ccccc2)n(Nc2ccc(Cl)cc2)c1C	400 µg/mL (≈ 1080 µM)	200 µg/mL (≈ 538 µM)	800 µg/mL (≈ 2150 µM)	800 µg/mL (≈ 2150 µM)	400 µg/mL (≈ 1080 µM)	800 µg/mL (≈ 2150 µM)	800 µg/mL (≈ 2150 µM)	800 µg/mL (≈ 2150 µM)	800 µg/mL (≈ 2150 µM)	800 µg/mL (≈ 2150 µM)	800 µg/mL (≈ 2150 µM)
CC(=O)N1CCN(c2ccc(OCC3COC(Cn4ccnc4)(c4ccc(Cl)cc4Cl)O3)cc2)CC1 (stereo unspecified) [KETOCONAZOLE]	–	–	–	50 µg/mL (≈ 94.1 µM)	–	100 µg/mL (≈ 188 µM)	100 µg/mL (≈ 188 µM)	–	–	–	–
COc1cccc(C(=O)CSc2nc(C)c(C)n2Nc2ccccc2)c1	400 µg/mL (≈ 1090 µM)	800 µg/mL (≈ 2180 µM)	800 µg/mL (≈ 2180 µM)	400 µg/mL (≈ 1090 µM)	800 µg/mL (≈ 2180 µM)	400 µg/mL (≈ 1090 µM)	400 µg/mL (≈ 1090 µM)	400 µg/mL (≈ 1090 µM)	800 µg/mL (≈ 2180 µM)	400 µg/mL (≈ 1090 µM)	800 µg/mL (≈ 2180 µM)
COc1ccc(Nn2c(SCC(=O)c3ccc(OC)c(OC)c3)nc(C)c2C)cc1	800 µg/mL (≈ 1870 µM)	800 µg/mL (≈ 1870 µM)	800 µg/mL (≈ 1870 µM)	200 µg/mL (≈ 468 µM)	800 µg/mL (≈ 1870 µM)	400 µg/mL (≈ 936 µM)	200 µg/mL (≈ 468 µM)	800 µg/mL (≈ 1870 µM)	1600 µg/mL (≈ 3740 µM)	800 µg/mL (≈ 1870 µM)	800 µg/mL (≈ 1870 µM)
Cc1nc(SCC(=O)c2cccc(F)c2)n(Nc2ccc(Cl)cc2)c1C	400 µg/mL (≈ 1030 µM)	100 µg/mL (≈ 256 µM)	800 µg/mL (≈ 2050 µM)	400 µg/mL (≈ 1030 µM)	200 µg/mL (≈ 513 µM)	400 µg/mL (≈ 1030 µM)	400 µg/mL (≈ 1030 µM)	400 µg/mL (≈ 1030 µM)	800 µg/mL (≈ 2050 µM)	800 µg/mL (≈ 2050 µM)	800 µg/mL (≈ 2050 µM)
Cc1ccc(Nn2c(SCC(=O)c3cccc(F)c3)nc(C)c2C)cc1	400 µg/mL (≈ 1080 µM)	200 µg/mL (≈ 541 µM)	800 µg/mL (≈ 2170 µM)	400 µg/mL (≈ 1080 µM)	400 µg/mL (≈ 1080 µM)	800 µg/mL (≈ 2170 µM)	800 µg/mL (≈ 2170 µM)	800 µg/mL (≈ 2170 µM)	400 µg/mL (≈ 1080 µM)	400 µg/mL (≈ 1080 µM)	800 µg/mL (≈ 2170 µM)
COc1ccc(Nn2c(SCC(=O)c3cccc(OC)c3)nc(C)c2C)cc1	800 µg/mL (≈ 2010 µM)	800 µg/mL (≈ 2010 µM)	800 µg/mL (≈ 2010 µM)	800 µg/mL (≈ 2010 µM)	800 µg/mL (≈ 2010 µM)	800 µg/mL (≈ 2010 µM)	800 µg/mL (≈ 2010 µM)	800 µg/mL (≈ 2010 µM)	200 µg/mL (≈ 503 µM)	800 µg/mL (≈ 2010 µM)	800 µg/mL (≈ 2010 µM)

The remaining compounds from weak to strong by MIC (Pseudomonas aeruginosa), led by results:

MIC (Pseudomonas aeruginosa)	MIC (Enterococcus faecalis [1])	MIC (Staphylococcus aureus)	MIC (Pichia kudriavzevii)	MIC (Listeria monocytogenes)	MIC (Nakaseomyces glabratus)	MIC (Candida albicans)	MIC (Escherichia coli [2])	MIC (Enterococcus faecalis [3])	MIC (Klebsiella pneumoniae)	MIC (Escherichia coli [4])	SMILES
1600 µg/mL (≈ 4330 µM)	1600 µg/mL (≈ 4330 µM)	1600 µg/mL (≈ 4330 µM)	1600 µg/mL (≈ 4330 µM)	1600 µg/mL (≈ 4330 µM)	1600 µg/mL (≈ 4330 µM)	1600 µg/mL (≈ 4330 µM)	1600 µg/mL (≈ 4330 µM)	1600 µg/mL (≈ 4330 µM)	1600 µg/mL (≈ 4330 µM)	1600 µg/mL (≈ 4330 µM)	Cc1ccc(Nn2c(SCC(=O)c3ccc(F)cc3)nc(C)c2C)cc1
800 µg/mL (≈ 2060 µM)	400 µg/mL (≈ 1030 µM)	800 µg/mL (≈ 2060 µM)	100 µg/mL (≈ 258 µM)	800 µg/mL (≈ 2060 µM)	400 µg/mL (≈ 1030 µM)	200 µg/mL (≈ 516 µM)	800 µg/mL (≈ 2060 µM)	200 µg/mL (≈ 516 µM)	800 µg/mL (≈ 2060 µM)	800 µg/mL (≈ 2060 µM)	Cc1ccc(Nn2c(SCC(=O)c3ccc(F)c(F)c3)nc(C)c2C)cc1
800 µg/mL (≈ 1990 µM)	200 µg/mL (≈ 498 µM)	400 µg/mL (≈ 995 µM)	200 µg/mL (≈ 498 µM)	1600 µg/mL (≈ 3980 µM)	800 µg/mL (≈ 1990 µM)	800 µg/mL (≈ 1990 µM)	800 µg/mL (≈ 1990 µM)	400 µg/mL (≈ 995 µM)	400 µg/mL (≈ 995 µM)	800 µg/mL (≈ 1990 µM)	COc1ccc(C(=O)CSc2nc(C)c(C)n2Nc2ccc(Cl)cc2)cc1
800 µg/mL (≈ 1900 µM)	400 µg/mL (≈ 952 µM)	800 µg/mL (≈ 1900 µM)	800 µg/mL (≈ 1900 µM)	800 µg/mL (≈ 1900 µM)	800 µg/mL (≈ 1900 µM)	800 µg/mL (≈ 1900 µM)	400 µg/mL (≈ 952 µM)	400 µg/mL (≈ 952 µM)	800 µg/mL (≈ 1900 µM)	800 µg/mL (≈ 1900 µM)	Cc1ccc(Nn2c(SCC(=O)c3ccc(Cl)c(Cl)c3)nc(C)c2C)cc1
800 µg/mL (≈ 2080 µM)	1600 µg/mL (≈ 4150 µM)	800 µg/mL (≈ 2080 µM)	400 µg/mL (≈ 1040 µM)	400 µg/mL (≈ 1040 µM)	400 µg/mL (≈ 1040 µM)	400 µg/mL (≈ 1040 µM)	800 µg/mL (≈ 2080 µM)	800 µg/mL (≈ 2080 µM)	800 µg/mL (≈ 2080 µM)	800 µg/mL (≈ 2080 µM)	COc1ccc(Nn2c(SCC(=O)c3ccc(F)cc3)nc(C)c2C)cc1
400 µg/mL (≈ 1080 µM)	400 µg/mL (≈ 1080 µM)	400 µg/mL (≈ 1080 µM)	200 µg/mL (≈ 538 µM)	400 µg/mL (≈ 1080 µM)	400 µg/mL (≈ 1080 µM)	800 µg/mL (≈ 2150 µM)	400 µg/mL (≈ 1080 µM)	400 µg/mL (≈ 1080 µM)	800 µg/mL (≈ 2150 µM)	400 µg/mL (≈ 1080 µM)	Cc1nc(SCC(=O)c2cccc(Cl)c2)n(Nc2ccccc2)c1C
400 µg/mL (≈ 926 µM)	100 µg/mL (≈ 232 µM)	800 µg/mL (≈ 1850 µM)	400 µg/mL (≈ 926 µM)	100 µg/mL (≈ 232 µM)	400 µg/mL (≈ 926 µM)	400 µg/mL (≈ 926 µM)	400 µg/mL (≈ 926 µM)	800 µg/mL (≈ 1850 µM)	800 µg/mL (≈ 1850 µM)	800 µg/mL (≈ 1850 µM)	COc1ccc(C(=O)CSc2nc(C)c(C)n2Nc2ccc(Cl)cc2)cc1OC

Reference: ChEMBL document CHEMBL3091428, “Synthesis and initial biological evaluation of substituted 1-phenylamino-2-thio-4,5-dimethyl-1H-imidazole derivatives” (Bioorg Med Chem Lett, 2013)
